{"source": "patent EP2785358B1", "about": "“INSULIN-MIMETICS AS THERAPEUTIC ADJUNCTS FOR BONE REGENERATION” (priority 2011, dated 2013)", "key": {"[1]": {"assay": "Vanadium quantification in femur by atomic absorption spectrophotometry", "assay_type": "in vivo, BB Wistar rats", "conditions": "0.1 mL of 4.35 mg/mL VAC solution (approximately 1.5 mg VAC/kg) into femoral canal", "procedure": "BB Wistar rats were anesthetized and confirmed to be non-responsive to external stimuli before beginning the surgical procedure. The anesthetized rat was be exsanguinated by cardiac puncture using a 10 ml syringe with a 22 gauge needle after shallow puncture just lateral to the sternum and through the intercostal space. After puncturing the dermis and cardiac wall slight backpressure was placed on the plunger to withdraw blood from the ventricle. The collected blood was transferred to an appropriate container used for collection of plasma (heparinized) or serum (non-heparinized). Following the cardiac puncture, the rats were euthanized via cervical dislocation.\nThe excised femora were be stripped of adhering muscle, tendon and other tissue after which the bones were rinsed three times with deionized water, and then placed on glassine paper and air dried. The pin was rinsed once and stored in a clean conical tube. The liver, kidneys, brain, and left humerous collected were rinsed 3x and air dried. The objective of \"drying\" was to remove adhering water droplets after the water rinse and to allow the true tissue weight to be recorded as precisely as possible. […] The organs were then placed into a low temperature (-80 degrees Celsius) freezer for storage until future analysis (quantification not currently planned). […]"}, "femur fractures [2]": {"tested_on": "femur fractures", "assay": "Histomorphometry, local VAC without a carrier", "assay_type": "in vivo, BB Wistar rats", "conditions": "for % Cartilage / % Mineralized Tissue / Callus Area: no carrier", "description": "Two independent reviewers were used to minimize inconsistencies."}, "femur fractures [3]": {"tested_on": "femur fractures", "assay": "Early immunohistochemistry (BrdU cell proliferation), local VAC", "assay_type": "in vivo, BB Wistar rats", "procedure": "At days 2, 4, and 7, and 10, animals were injected intraperitoneally with 30 mg/kg of 5-bromo-2'deoxyuridine (BrdU, Sigma Chemical Co., St. Louis, MO) one hour prior to sacrifice to label replicating cells as a measure of cellular proliferation. The fractured femurs were resected and fixed in formalin, decalcified (Immunocal, Decal Corp., Tallman, NY), embedded in paraffin, and sectioned longitudinally (5 µm thick). Cells positive for BrdU incorporation were detected by immunohistochemistry using commercially available reagents (DAKO Corp., Carpentaria, California). Digital images of each fracture were collected with an Olympus BH2-RFCA microscope equipped with a Nikon DXM1200f camera. For each specimen, callus area was measured and the BrdU positive cells in the periosteal callus region were counted using Image Pro Plus software. All BrdU positive cells in the external callus to a maximum of 1 cm proximal and distal of the fracture site and 3 mm from the external surface of the femur were counted. The number of BrdU positive cells was normalized per unit area of callus and only one datum per rat (BrdU positive cells per mm2) was used for the statistical analysis."}, "femur fractures [4]": {"tested_on": "femur fractures", "assay": "Torsional mechanical testing, local VAC without a carrier in normal rats", "assay_type": "in vivo, non-diabetic BB Wistar rats", "parameters": "Percent Effective Shear Modulus / Percent Effective Shear Stress: scale not given: direction of the effect not stated beside the values", "procedure": "A closed mid-diaphyseal fracture surgery was performed on the right femur of each rat as described previously. […] A closed, midshaft fracture was then created using a three-point bending fracture instrument (BBC Specialty Automotive, Linden NJ) and confirmed with X-rays immediately post-fracture."}, "femur fractures [5]": {"tested_on": "femur fractures", "assay": "Long-term radiographic analysis at twelve weeks, local VAC", "assay_type": "in vivo, normal (non-diabetic) rats", "conditions": "for ectopic bone formation on radiographs: twelve weeks post-fracture", "procedure": "The effect of local vanadium therapy on healing of femur fractures in normal (non-diabetic) rats was measured by radiographic analysis."}, "[6]": {"conditions": "VAC 1.5 mg/kg local, 10 Days Post-Fracture"}, "[7]": {"conditions": "VAC 1.5 mg/kg local, 14 Days Post-Fracture"}, "[8]": {"conditions": "VAC 1.5 mg/kg local, 21 Days Post-Fracture"}, "[9]": {"conditions": "VAC 3.0 mg/kg local, 10 Days Post-Fracture"}, "[10]": {"conditions": "VAC 3.0 mg/kg local, 14 Days Post-Fracture"}, "[11]": {"conditions": "VAC 3.0 mg/kg local, 21 Days Post-Fracture"}, "[12]": {"conditions": "VAC 0.5 mg/kg local, no carrier, normal rats, 4 weeks"}, "[13]": {"conditions": "VAC 0.5 mg/kg local, no carrier, normal rats, 4 weeks, normalized to intact femur"}, "[14]": {"conditions": "VAC 1.5 mg/kg Autoclaved, no carrier, four weeks"}, "[15]": {"conditions": "VAC 1.5 mg/kg Gamma Irradiated, no carrier, four weeks"}, "[16]": {"conditions": "VAC 1.5 mg/kg local, no carrier, normal rats, 5 weeks"}, "[17]": {"conditions": "VAC 1.5 mg/kg local, rats of advanced age (190-195 days), four weeks"}, "[18]": {"conditions": "VAC 1.5 mg/kg without sterilization, no carrier, four weeks"}, "[19]": {"conditions": "VAC 1.5 mg/kg without sterilization, no carrier, four weeks, normalized to intact femur"}, "[20]": {"conditions": "VAC 3.0 mg/kg local, no carrier, normal rats, 4 weeks"}, "[21]": {"conditions": "VAC 3.0 mg/kg local, no carrier, normal rats, 4 weeks, normalized to intact femur"}}, "note": "Values joined by “and” are separate entries in the source; they are usually repeats but may differ in a detail not shown here. Equal values may be shown once. Marks after values point to notes of the source that are not given here.", "data": [{"smiles": "CC(=O)/C=C(/C)[O-].CC(=O)/C=C(/C)[O-].[O]=[V+2]", "note": "[VAC, Vanadyl acetylacetonate]", "values": [{"measurement": "time locally injected VAC remains bound within the fractured femora", "setting": "[1]", "value": "approximately two weeks"}, {"measurement": "% Cartilage", "setting": "femur fractures [2]; [6]", "value": "30.6 ± 12.4^∗ (n=7) %"}, {"measurement": "% Mineralized Tissue", "setting": "femur fractures [2]; [6]", "value": "15.8 ± 5.1 (n=7) %"}, {"measurement": "Callus Area", "setting": "femur fractures [2]; [6]", "value": "18.4 ± 3.6 (n=7) mm^2"}, {"measurement": "% Cartilage", "setting": "femur fractures [2]; [7]", "value": "14.2 ± 4.9 (n=5) %"}, {"measurement": "% Mineralized Tissue", "setting": "femur fractures [2]; [7]", "value": "21.3 ± 2.1^∗ (n=5) %"}, {"measurement": "Callus Area", "setting": "femur fractures [2]; [7]", "value": "21.7 ± 5.0 (n=5) mm^2"}, {"measurement": "% Cartilage", "setting": "femur fractures [2]; [8]", "value": "11.0± 4.7 (n=5) %"}, {"measurement": "% Mineralized Tissue", "setting": "femur fractures [2]; [8]", "value": "32.7 ± 2.9^∗ (n=5) %"}, {"measurement": "Callus Area", "setting": "femur fractures [2]; [8]", "value": "20.1 ± 4.5 (n=5) mm^2"}, {"measurement": "percent cartilage compared to controls", "setting": "femur fractures [2]; VAC 1.5 mg/kg, 7 days (and 10 days), p < 0.05", "value": "statistically higher"}, {"measurement": "% Cartilage", "setting": "femur fractures [2]; [9]", "value": "17.8± 5.5 (n=5) %"}, {"measurement": "% Mineralized Tissue", "setting": "femur fractures [2]; [9]", "value": "15.2 ± 3.4 (n=5) %"}, {"measurement": "Callus Area", "setting": "femur fractures [2]; [9]", "value": "18.6 ± 2.9 (n=5) mm^2"}, {"measurement": "% Cartilage", "setting": "femur fractures [2]; [10]", "value": "13.0 ± 6.4 (n=5) %"}, {"measurement": "% Mineralized Tissue", "setting": "femur fractures [2]; [10]", "value": "21.9 ± 3.2^∗ (n=5) %"}, {"measurement": "Callus Area", "setting": "femur fractures [2]; [10]", "value": "19.3 ± 3.1 (n=5) mm^2"}, {"measurement": "% Cartilage", "setting": "femur fractures [2]; [11]", "value": "9.4± 5.7 (n=4) %"}, {"measurement": "% Mineralized Tissue", "setting": "femur fractures [2]; [11]", "value": "33.4 ± 5.2 (n=4) %"}, {"measurement": "Callus Area", "setting": "femur fractures [2]; [11]", "value": "20.3± 5.1 (n=4) mm^2"}, {"measurement": "cell proliferation (BrdU positive cells) in the periosteum versus control", "setting": "femur fractures [3]; seven and ten days post-fracture, p < 0.05", "value": "significantly more proliferating cells per unit area"}, {"measurement": "cell proliferation (BrdU positive cells) versus control", "setting": "femur fractures [3]; two or four days post-fracture", "value": "no significant differences"}, {"measurement": "Percent maximum torsional rigidity", "setting": "femur fractures [4]; VAC 0.25 mg/kg local, no carrier, normal rats, 4 weeks, normalized to intact femur", "value": "67 ± 21 ^∗ Percent"}, {"measurement": "Maximum Torque to Failure", "setting": "femur fractures [4]; [12]", "value": "362 ± 49 ^∗,# Nmm"}, {"measurement": "Maximum Torsional Rigidity", "setting": "femur fractures [4]; [12]", "value": "45,877 ± 13,079^∗ Nmm^2/rad"}, {"measurement": "Percent Maximum Torque to Failure", "setting": "femur fractures [4]; [13]", "value": "72 ± 19 ^∗ Percent"}, {"measurement": "Percent maximum torsional rigidity", "setting": "femur fractures [4]; [13]", "value": "103 ± 23 ^∗,# Percent"}, {"measurement": "Effective Shear Modulus", "setting": "femur fractures [4]; [14]", "value": "9.6×10^2 ± 7.8×10^2 MPa"}, {"measurement": "Maximum Torsional Rigidity", "setting": "femur fractures [4]; [14]", "value": "3.4×10^4 ± 1.5×10^4* Nmm^2/rad and 3.4×10^4 ± 1.5×10^4∗ Nmm^2/rad"}, {"measurement": "Percent maximum torsional rigidity", "setting": "femur fractures [4]; VAC 1.5 mg/kg Autoclaved, no carrier, four weeks, normalized to intact femur", "value": "70 ± 31 ^∗ Percent"}, {"measurement": "Effective Shear Modulus", "setting": "femur fractures [4]; [15]", "value": "7.9×10^2 ± 2.4×10^2 MPa"}, {"measurement": "Maximum Torsional Rigidity", "setting": "femur fractures [4]; [15]", "value": "2.6×10^4 ± 3.7×10^3 Nmm^2/rad"}, {"measurement": "Maximum Torque to Failure", "setting": "femur fractures [4]; [16]", "value": "471 ± 91", "unit": "Nmm"}, {"measurement": "Maximum Torsional Rigidity", "setting": "femur fractures [4]; [16]", "value": "34,522 ± 8,347^* Nmm^2/rad"}, {"measurement": "Effective Shear Modulus", "setting": "femur fractures [4]; [17]", "value": "1.3×10^3 ± 1.3×10^3 MPa"}, {"measurement": "Effective Shear Stress", "setting": "femur fractures [4]; [17]", "value": "43± 17", "unit": "MPa"}, {"measurement": "Maximum Torsional Rigidity", "setting": "femur fractures [4]; [17]", "value": "3.0×10^4 ± 1.8×10^4 Nmm^2/rad"}, {"measurement": "Mean Angle at Failure", "setting": "femur fractures [4]; [17]", "value": "12± 4", "unit": "degrees"}, {"measurement": "Percent Maximum Torque to Failure", "setting": "femur fractures [4]; VAC 1.5 mg/kg local, rats of advanced age (190-195 days), four weeks, normalized to intact femur", "value": "44 ± 10^∗ Percent"}, {"measurement": "Effective Shear Modulus", "setting": "femur fractures [4]; [18]", "value": "2.5×10^3 ± 2.4×10^3 MPa"}, {"measurement": "Effective Shear Stress", "setting": "femur fractures [4]; [18]", "value": "69 ± 59", "unit": "MPa"}, {"measurement": "Maximum Torque to Failure", "setting": "femur fractures [4]; [18]", "value": "329 ± 117 ^∗ Nmm"}, {"measurement": "Maximum Torsional Rigidity", "setting": "femur fractures [4]; [18]", "value": "3.5×10^4 ± 1.7×10^4* Nmm^2/rad and 3.5×10^4 ± 1.7×10^4∗ Nmm^2/rad"}, {"measurement": "Percent Effective Shear Modulus", "setting": "femur fractures [4]; [19]", "value": "23 ± 12 ^∗ Percent"}, {"measurement": "Percent maximum torsional rigidity", "setting": "femur fractures [4]; [19]", "value": "76 ± 28 ^∗ Percent"}, {"measurement": "Effective Shear Modulus", "setting": "femur fractures [4]; [20]", "value": "2,948 ± 1,218 ^∗ MPa"}, {"measurement": "Effective Shear Stress", "setting": "femur fractures [4]; [20]", "value": "101 ± 18 ^∗,#,& MPa"}, {"measurement": "Maximum Torque to Failure", "setting": "femur fractures [4]; [20]", "value": "409 ± 43 ^∗,# Nmm"}, {"measurement": "Maximum Torsional Rigidity", "setting": "femur fractures [4]; [20]", "value": "41,007 ± 11,236 ^∗ Nmm^2/rad"}, {"measurement": "Percent Effective Shear Modulus", "setting": "femur fractures [4]; [21]", "value": "20 ± 11 ^∗ Percent"}, {"measurement": "Percent Effective Shear Stress", "setting": "femur fractures [4]; [21]", "value": "30 ± 12 ^∗,# Percent"}, {"measurement": "Percent Maximum Torque to Failure", "setting": "femur fractures [4]; [21]", "value": "79 ± 12 ^∗ Percent"}, {"measurement": "Percent maximum torsional rigidity", "setting": "femur fractures [4]; [21]", "value": "78 ± 10 ^∗ Percent"}, {"measurement": "Maximum Torsional Rigidity", "setting": "femur fractures [4]; VAC 3.0 mg/kg local, no carrier, normal rats, 5 weeks", "value": "37,496 ± 12,846^∗ Nmm^2/rad"}, {"measurement": "increase in mechanical parameter of torsion", "setting": "femur fractures [4]; VAC therapeutic dosage range 0.5 to 3.0 mg/Kg", "value": "two to three-fold"}, {"measurement": "ectopic bone formation on radiographs", "setting": "femur fractures [5]; VAC high (3.0 mg/kg)", "value": "no evidence of ectopic bone formation"}, {"measurement": "ectopic bone formation on radiographs", "setting": "femur fractures [5]; VAC low (1.5 mg/kg)", "value": "no evidence of ectopic bone formation"}, {"measurement": "toxic/carcinogenic effect (remodeling of femora)", "setting": "femur fractures [5]; local VAC, throughout fracture healing, normal remodeling", "value": "no evidence of a toxic/carcinogenic effect"}]}]}
